Consider 2 compounds from patent publication US20220241437A1, “ATHER[…] AGENTS AND METHODS OF USING THE SAME” (THE GENERAL HOSPITAL CORPORATION, priority 2015, published 2022).

The test system of series [1] is atherosclerotic lesions. Put plainly: Fluorescence microscopy, histology and RAM11 immunohistochemistry of aorta/vessel cross-sections. It is filed as in vivo, rabbit. Here is the method: A histology analysis for the aortas was then performed. The excised aortas were filled with an optimal cutting temperature compound and then snap frozen on dry ice. Using a cryostat (Leica CM3050 S), 8 μm sections of the aortas were obtained. The tissue sections were stained for hemotoxylin and eosin (H&E), Masson's Trichrome, and Oil Red 0 (ORO) histological imaging. Additionally, immunohistochemistry tests were performed for macrophages (RAM11; Dako).
Unstained tissue sections were imaged with a multi-wavelength fluorescence microscope (Nikon Eclipse 90i) for FITC and MB. FITC's autofluorescence emissions at 535 nm were excited with a 480 nm source, and MB's near-infrared fluorescent emissions at 700 nm were excited with a 630 nm Cy5.5 source.
The co-localization of MB and ICG found through FRI was also verified using high-resolution epifluorescence microscopy of fresh-frozen tissue cross-sections from the areas of interest outlined in the FRI results. […] Further, the MB binding was associated with cellular uptake when evaluating sections counterstained with a fluorescent nuclear stain.
Fluorescent microscopy (FM) was performed on a cross-section of the aorta of m464 in the fluorescein isothiocyanite (FITC) and Cy5 channels. […] The white areas represent the near-infrared fluorescence of MB under a Cy5.5 source. The grey areas represent the autofluorescence of FITC. There is little overlap between the MB and FITC areas, evidencing the unique uptake and binding profile for MB in atherosclerotic structures not targeted by other imaging agents. […] Again, the distinction between the areas of MB binding and FITC autofluorescence indicate MB's utility as an atheroma targeting agent unlike any other. Further, the TBR of MB in FIGS. 6A and 6B illustrates the robustness of the targeting profile of MB.
Moreover, FIGS. 7A-7C show FM images of an axial section of a subject's vessel including a venous thrombus after undergoing vessel injury according to the high inflammation protocol. The subject was injected with a 1 mg/kg MB concentration in a phosphate buffer saline solution 24 hours prior to imaging. […] This again evidences the unique binding pattern that MB may offer for vascular imaging.
MB binding in the aortas of the subjects was also evaluated using traditional histological stains. A tissue cross-section fluorescently imaged to evaluate MB uptake was further treated with a hemotoxylin and eosin (H&E) stain. […] Even less cellular areas were also found to have MB uptake.
Finally, the cross-section was imaged using immunohistochemical-staining techniques. The immunohistochemical stain RAM11 which is a known macrophage marker was used to cross-correlate the MB binding images. […] These areas where not limited to a specific location. For example, one area of consistent MB and RAM11 co-localization was located near the luminal side of internal elastic lamina as well as other regions of the atheroma.

Series [2] deals with atheroma. The experiment in a line: NIRF / multi-wavelength fluorescence reflectance imaging (FRI) of resected aortas in rabbit atherosclerosis model. It is filed as in vivo. The settings on record: for co-localization in atherosclerotic zones by FRI: MB 1 mg/kg 24 hours and ICG 0.5 mg/kg 0.5 hours before imaging, rabbit m464. The text has this:
New Zealand white rabbits (3-4 kg, Charles River Laboratories, n=2) were fed a high cholesterol diet (0.3% total cholesterol, 5% peanut oil; Research Diets) and were subjected to an infrarenal abdominal aorta injury using a 3F Fogarty embolectomy balloon (Edwards Lifesciences). The 3F balloon was inserted percutaneously via the femoral artery, inflated to nominal pressure, and withdrawn under tension and repeated. After recovery from the injury, the rabbits were continued on the 0.3% high cholesterol diet, and their total serum cholesterol levels were routinely measured (Hemagen Diagnostics).
24 hours prior to atheroma imaging, 1 mg/kg concentration of MB in a phosphate buffer saline solution was administered to the rabbit subjects intravenously.
28 days after aortic injury and continuation on the high cholesterol diet, the rabbits were anesthetized and imaged using various imaging modalities. An aortic angiography (ARCADIS Varic C-arm fluoroscopy unit, Siemens) was performed on the rabbits with a manual contrast injection. After the angiography, an intravascular ultrasound (IVUS) was performed using a catheter (iLab, Boston Scientific). The IVUS catheter was used with an automated 0.5 mm/second pullback across the previously injured aortic region to assess plaque burden. Finally, the rabbit subjects underwent near-infrared fluorescence optical coherence tomography (NIRF-OCT) imaging.
Following multimodality imaging, the rabbits were euthanized, and their aortas were removed and placed in saline at 4° C. The freshly resected aortas were imaged using multi-wavelength fluorescence reflectance imaging (FRI) with fluorescein isothiocyanite (FITC) and MB having emission wavelengths of 535 nm and 700 nm, respectively. While using the FRI system (Kodak ImageStation 4000, Carestream Health), the excitation source used for triggering FITC's autofluorescence was focused around 470 nm with an exposure time of 4 seconds. MB's near-infrared fluorescence was triggered by excitation wavelengths around 630 nm for 64 seconds. […] The target-to-background ratios(TBRs) were calculated for each ROI as the mean plaque fluorescence divided by the background fluorescence measured in the adjacent normal vessel.
A concentration of 1 mg/kg MB in phosphate buffer saline solution was co-injected with a 0.5 mg/kg solution of indocyanine green (ICG) into the aorta of the rabbit subject, m464, 24 hours and 0.5 hours before imaging, respectively. Fluorescence reflectance imaging (FRI) was performed to evaluate uptake and distribution of MB and ICG. […]
The TBRs were calculated as the mean fluorescence divided by the background fluorescence of the adjacent normal aorta. […]

For series [3] the following is noted: phosphate buffer saline solution; cited from earlier work.
For series [4] the following is noted: healthy human volunteers, intravenous (Peter et al. 2000); cited from earlier work.
Series [5] can be described thus: Half-life of MB in rabbit bloodstream from fluorescence intensity over time. It is filed as in vivo. To be noted: blood, intravenous, 1 mg/kg. As to the method: The methylene blue (MB) binding and uptake was evaluated in a rabbit model of atherosclerosis of the abdominal aorta. […] The half-life for MB in rabbit bloodstreams was measured in two subjects, m463 and m464 that had been subjected to a high cholesterol diet and the high inflammation protocol.

Like-named read-outs stand apart in the source and are kept apart here.

What is called half-life is the time in which the quantity being followed falls by half.

`CN(C)c1ccc2nc3ccc(N(C)C)cc3[s+]c2c1.[Cl-]` [MB, [7-(dimethylamino)phenothiazin-3-ylidene]-dimethylazanium chloride]: the “targeting to atheroma in FM image of aortic cross-section” value in series [1] (1 mg/kg i.v. 24 hours before imaging, NIRF absent from normal arterial wall) is reported as “highly targeted to the atheroma”. The “uptake in vessel with venous thrombus (FM)” value in series [1] (1 mg/kg in phosphate buffer saline 24 hours prior to imaging) is “distinct spots or drops along the inner vessel walls and in the venous thrombus”. Further, the “association of uptake with macrophages (RAM11 staining)” value in series [1] (aortic cross-section) is “associated with areas positive for macrophages in the RAM11 staining”. In series [1] (aortic cross-section), the “depth of binding in lesions (H&E histology)” value is “seen in specific regions permeating the entire depth of the lesions”. Besides, in series [1] (fresh-frozen tissue cross-sections), the “localization of uptake by high-resolution epifluorescence microscopy” value is “localize in both microscopic lesions and atherosclerotic lesions with greater than 60% stenosis”. Besides, the “deposition in plaques detected by NIRF imaging” value in series [2] (1 mg/kg intravenous, rabbit atherosclerosis model) is “can produce deposition of MB in plaques of rabbits”. Also, the “co-localization in atherosclerotic zones by FRI” value in series [2] was “co-localization of MB and ICG in the atherosclerotic zones of the aorta”. Further, the “target-to-background ratios (TBRs) of aortas” value in series [2] (MB 1 mg/kg i.v. 24 hours before imaging, versus aortas without MB, FRI) was “higher TBRs than those without MB”. Moreover, the molar attenuation coefficient in series [3] is 73,000 cm^−1/M. Moreover, in series [3], the quantum yield was 5.3%. Besides, in series [3], the quenching threshold is 12.5 µM. Moreover, in series [4], the blood half-life was 5.25 h. Also, the half-life is 7.35 h in series [5] (1 phase exponential decay of fluorescence intensity, read-out: half-life of MB in bloodstream (converted)); ~5.25 h in series [5] (mean of m463 and m464, read-out: average of the MB half-life in the rabbits tested (converted)); 3.13 h in series [5] (rabbit subject m463, 1 phase exponential decay of fluorescence intensity, read-out: half-life of MB in bloodstream (converted)); ~3 h in series [5] (rabbit subject m463, read-out: half-life of MB in bloodstream (converted)); ~7.4 h in series [5] (read-out: half-life of MB in bloodstream (converted)).

For the compound `CC1(C)C(/C=C/C=C/C=C/C=C2\N(CCCCS(=O)(=O)O)c3ccc4ccccc4c3C2(C)C)=[N+](CCCCS(=O)(=O)[O-])c2ccc3ccccc3c21` [ICG, Indocyanine green], the “co-localization in atherosclerotic zones by FRI” value in series [2] is “co-localization of MB and ICG in the atherosclerotic zones of the aorta”.
